Measured values: ChEMBL document CHEMBL1201862, “PubChem BioAssay data set” (2004)
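All cell lines were grown in 96-well plates and treated with compound for 48 hours. Abbreviation: GI50, concentration required for 50% inhibition of growth.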 Calls of active or inactive are those of the source. Cut-off read from the data, not from the text of the source: active = GI50 up to about 1.1 µM and inactive = higher.

Tests used:
Assay in all cases: inhibition of tumour cell growth, NCI panel, 48 h
[1] = test system: 786-0
[2] = test system: A498
[3] = test system: A549
[4] = test system: ACHN
[5] = test system: BT-549
[6] = test system: CCRF-CEM
[7] = test system: COLO 205
[8] = test system: HCT-116
[9] = test system: HCT-15
[10] = test system: MDA-MB-435
[11] = test system: OVCAR-8
[12] = test system: SF-268
[13] = test system: SF-295
[14] = test system: SK-MEL-28
[15] = test system: SK-MEL-5
[16] = test system: SK-OV-3
[17] = test system: SN12C
[18] = test system: SNB-75
[19] = test system: SR
[20] = test system: UACC-62

Row | Structure (SMILES) | GI50 [1] | GI50 [2] | GI50 [3] | GI50 [4] | GI50 [5] | GI50 [6] | GI50 [7] | GI50 [8] | GI50 [9] [µM] | GI50 [10] | GI50 [11] | GI50 [12] | GI50 [13] | GI50 [14] | GI50 [15] | GI50 [16] | GI50 [17] | GI50 [18] | GI50 [19] | GI50 [20]
1 | CCn1cc(C(=O)O)c(=O)c2cc(F)c(N3CCN(CN4C(=O)/C(=N\c5ncc(Cc6cc(OC)c(OC)c(OC)c6)c(N)n5)c5cc(Cl)ccc54)CC3)cc21 | > 100 µM (inactive) | > 100 µM (inactive) | > 100 µM (inactive) | > 100 µM (inactive) | > 100 µM (inactive) | 91 µM (inactive) | > 100 µM (inactive) | 74.3 µM (inactive) | 91.6 | 33.3 µM (inactive) | > 100 µM (inactive) | > 100 µM (inactive) | > 100 µM (inactive) | > 100 µM (inactive) | > 100 µM (inactive) | > 100 µM (inactive) | > 100 µM (inactive) | > 100 µM (inactive) | 41.4 µM (inactive) | > 100 µM (inactive)
2 | CN(C)c1ncnc2c1ncn2CCn1cnc2c(N(C)C)ncnc21 | > 100 µM (inactive) | > 100 µM (inactive) | > 100 µM (inactive) | > 100 µM (inactive) | > 100 µM (inactive) | > 100 µM (inactive) | > 100 µM (inactive) | > 100 µM (inactive) | > 100 | > 100 µM (inactive) | > 100 µM (inactive) | > 100 µM (inactive) | > 100 µM (inactive) | > 100 µM (inactive) | > 100 µM (inactive) | > 100 µM (inactive) | > 100 µM (inactive) | > 100 µM (inactive) | 2.28 µM (inactive) | > 100 µM (inactive)
3 | CC1(C)C2CCC1(CS(=O)(=O)Nc1ccccc1)C(=O)C2 (stereo not given) | > 100 µM (inactive) | > 100 µM (inactive) | > 100 µM (inactive) | > 100 µM (inactive) | > 100 µM (inactive) | 11.7 µM (inactive) | > 100 µM (inactive) | > 100 µM (inactive) | > 100 | > 100 µM (inactive) | > 100 µM (inactive) | > 100 µM (inactive) | > 100 µM (inactive) | > 100 µM (inactive) | > 100 µM (inactive) | > 100 µM (inactive) | > 100 µM (inactive) | 89.9 µM (inactive) | 35.5 µM (inactive) | > 100 µM (inactive)
4 | CSc1cc(N)ccc1/N=N/c1ccc(S(N)(=O)=O)cc1 | 26 µM (inactive) | 48 µM (inactive) | 22.1 µM (inactive) | 27.2 µM (inactive) | 6.4 µM (inactive) | 27.3 µM (inactive) | 25.8 µM (inactive) | 30.5 µM (inactive) | 21.8 | 27.4 µM (inactive) | 22.3 µM (inactive) | 37.8 µM (inactive) | 22.1 µM (inactive) | 25.5 µM (inactive) | 15.3 µM (inactive) | 35.8 µM (inactive) | 27.5 µM (inactive) | 15.5 µM (inactive) | 34.6 µM (inactive) | 15.9 µM (inactive)
5 | COC(=O)c1ccccc1CC1Cc2cc3c(cc2C1=O)CCC3 (stereo not given) | 16.6 µM (inactive) | 11.7 µM (inactive) | 20.3 µM (inactive) | 27.7 µM (inactive) | 10.8 µM (inactive) | 6.53 µM (inactive) | 8.59 µM (inactive) | 5.32 µM (inactive) | 4.02 | 1.95 µM (inactive) | 20.1 µM (inactive) | 29.6 µM (inactive) | 14.6 µM (inactive) | 17.8 µM (inactive) | 7.83 µM (inactive) | 18.5 µM (inactive) | 11.5 µM (inactive) | 11.4 µM (inactive) | 4.06 µM (inactive) | 9.77 µM (inactive)
6 | CN(C1=NS(=O)(=O)N=C(N(C)c2ccccc2)O1)c1ccccc1 | 24.9 µM (inactive) | 20.5 µM (inactive) | 21.2 µM (inactive) | 17.3 µM (inactive) | 8.38 µM (inactive) | 13.4 µM (inactive) | 21.8 µM (inactive) | 13.7 µM (inactive) | 15.1 | 13.8 µM (inactive) | 17.4 µM (inactive) | 24.5 µM (inactive) | 21.8 µM (inactive) | 22.8 µM (inactive) | 7.66 µM (inactive) | 40.1 µM (inactive) | 18.7 µM (inactive) | 16.7 µM (inactive) | 7.06 µM (inactive) | 14.2 µM (inactive)
7 | O=S(=O)(NNc1ccccc1)c1ccccc1 | 52.6 µM (inactive) | 81.5 µM (inactive) | 8.87 µM (inactive) | 0.662 µM (active) | 19.2 µM (inactive) | 14.3 µM (inactive) | 8.99 µM (inactive) | 13.2 µM (inactive) | 11.5 | 4.81 µM (inactive) | 28.5 µM (inactive) | 38.5 µM (inactive) | 0.646 µM (active) | 48.2 µM (inactive) | 2.1 µM (inactive) | 65.3 µM (inactive) | 4.49 µM (inactive) | 40 µM (inactive) | 11.2 µM (inactive) | 0.481 µM (active)
8 | C=C(Cl)COC(=O)Nc1cccc(Cl)c1 | 27.4 µM (inactive) | 23.4 µM (inactive) | 30.3 µM (inactive) | 34.9 µM (inactive) | 26.7 µM (inactive) | 28.2 µM (inactive) | 31.7 µM (inactive) | 27 µM (inactive) | 28.6 | 30.1 µM (inactive) | 32.6 µM (inactive) | 40.1 µM (inactive) | 25.7 µM (inactive) | 42.1 µM (inactive) | 18 µM (inactive) | 72.8 µM (inactive) | 33.8 µM (inactive) | 26.4 µM (inactive) | 51.1 µM (inactive) | 20.6 µM (inactive)
9 | NC(Cc1cccnn1)C(=O)O (stereo not given) | > 100 µM (inactive) | > 100 µM (inactive) | > 100 µM (inactive) | > 100 µM (inactive) | > 100 µM (inactive) | > 100 µM (inactive) | > 100 µM (inactive) | > 100 µM (inactive) | > 100 | > 100 µM (inactive) | > 100 µM (inactive) | > 100 µM (inactive) | > 100 µM (inactive) | > 100 µM (inactive) | > 100 µM (inactive) | > 100 µM (inactive) | > 100 µM (inactive) | > 100 µM (inactive) | > 100 µM (inactive) | > 100 µM (inactive)
10 | CC(=O)N(O)[C@@H]1CC[C@H](n2cnc3c(N)ncnc32)C1 | > 100 µM (inactive) | > 100 µM (inactive) | > 100 µM (inactive) | > 100 µM (inactive) | > 100 µM (inactive) | > 100 µM (inactive) | > 100 µM (inactive) | > 100 µM (inactive) | > 100 | > 100 µM (inactive) | > 100 µM (inactive) | > 100 µM (inactive) | > 100 µM (inactive) | > 100 µM (inactive) | > 100 µM (inactive) | > 100 µM (inactive) | > 100 µM (inactive) | > 100 µM (inactive) | > 100 µM (inactive) | > 100 µM (inactive)
11 | CN(C)CCNC(=O)c1cccc(N(C)C(=O)c2ccccc2)c1[N+](=O)[O-] | > 100 µM (inactive) | > 100 µM (inactive) | > 100 µM (inactive) | > 100 µM (inactive) | > 100 µM (inactive) | > 100 µM (inactive) | > 10 µM (inactive) | > 100 µM (inactive) | > 100 | > 100 µM (inactive) | > 100 µM (inactive) | > 100 µM (inactive) | > 100 µM (inactive) | > 100 µM (inactive) | > 100 µM (inactive) | > 100 µM (inactive) | > 10 µM (inactive) | 53.6 µM (inactive) | > 100 µM (inactive) | > 100 µM (inactive)
12 | Cc1ccccc1-n1c(=O)c2ncn(CCCl)c2n(-c2ccccc2C)c1=S | > 100 µM (inactive) | > 100 µM (inactive) | > 100 µM (inactive) | > 100 µM (inactive) | > 100 µM (inactive) | > 100 µM (inactive) | > 100 µM (inactive) | > 100 µM (inactive) | > 100 | > 100 µM (inactive) | > 100 µM (inactive) | > 100 µM (inactive) | > 100 µM (inactive) | > 100 µM (inactive) | > 100 µM (inactive) | > 100 µM (inactive) | > 100 µM (inactive) | > 100 µM (inactive) | > 100 µM (inactive) | > 100 µM (inactive)
13 | COC1=CC2(C=CC1=O)CCNC1=C2C(=O)c2nc[nH]c2C1=O (stereo not given) | > 100 µM (inactive) | > 100 µM (inactive) | > 100 µM (inactive) | > 100 µM (inactive) | > 100 µM (inactive) | > 100 µM (inactive) | > 100 µM (inactive) | > 100 µM (inactive) | > 100 | > 100 µM (inactive) | > 100 µM (inactive) | > 100 µM (inactive) | > 100 µM (inactive) | > 100 µM (inactive) | > 100 µM (inactive) | > 100 µM (inactive) | > 100 µM (inactive) | > 100 µM (inactive) | > 100 µM (inactive) | > 100 µM (inactive)
14 | CC1(C)[C@@H]2C[C@H]1c1cnc(-c3ccccn3)cc1C2[C@@H]1c2cc(-c3ccccn3)ncc2[C@@H]2C[C@H]1C2(C)C (stereo not given in full) | 86.1 µM (inactive) | 39.9 µM (inactive) | 30.3 µM (inactive) | 40.5 µM (inactive) | > 100 µM (inactive) | 47.5 µM (inactive) | 49.1 µM (inactive) | 49 µM (inactive) | 24.5 | 76 µM (inactive) | 46.8 µM (inactive) | 29.3 µM (inactive) | 34.5 µM (inactive) | 88.3 µM (inactive) | 49.7 µM (inactive) | 73.6 µM (inactive) | 97.5 µM (inactive) | 55.8 µM (inactive) | 62.8 µM (inactive) | 45 µM (inactive)
